The target of data set [1] is T1, human 5-HT1A receptors (Homo sapiens, UniProt P08908).
T1 construct: expressed in transfected cells; host or cells: HeLa cells (HA7), used as cell homogenate
T1 sequence (P08908 1-422): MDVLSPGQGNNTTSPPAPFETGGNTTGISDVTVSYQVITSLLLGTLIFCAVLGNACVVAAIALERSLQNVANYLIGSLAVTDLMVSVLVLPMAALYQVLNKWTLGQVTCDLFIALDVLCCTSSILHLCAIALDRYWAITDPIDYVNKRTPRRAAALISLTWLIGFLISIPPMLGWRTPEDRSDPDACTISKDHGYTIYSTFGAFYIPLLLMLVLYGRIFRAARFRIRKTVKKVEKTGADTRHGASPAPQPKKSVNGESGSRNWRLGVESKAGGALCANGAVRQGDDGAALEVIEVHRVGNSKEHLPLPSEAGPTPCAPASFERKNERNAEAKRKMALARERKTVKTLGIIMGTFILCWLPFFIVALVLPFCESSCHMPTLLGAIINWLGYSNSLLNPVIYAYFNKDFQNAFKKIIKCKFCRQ
In words: Inhibition of 3H-5-CT binding to human 5-HT1A receptors. Here is the method: Inhibition of ^3H-5-CT Binding to Human 5-HT1A Receptors
Human 5-HT1A receptors (40 μg of cell homogenate) were incubated for 15 minutes at 37° C. in 50 mM Tris buffer at pH 7.7 in the presence of ^3H-5-CT. Non-specific binding was determined by including 10 μM of metergoline. The reaction was terminated by rapid filtration through Unifilter GF/B filters on a Tomtec Cell Harvester. Filters were counted in a Packard Top Counter.

Data set [2] concerns 3H-5-HT uptake into whole rat brain synaptosomes. In words: Inhibition of 3H-5-HT uptake into rat brain synaptosomes. The format is biochemical. Conditions: 3H-5-HT accumulation into whole rat brain synaptosomes, in vitro; read-out: Inhibition of serotonin reuptake IC50. Here is the method:
Inhibition of ^3H-5-HT Uptake Into Rat Brain Synaptosomes
Using this method the ability of drugs to inhibit the accumulation of ^3H-5-HT into whole rat brain synaptosomes is determined in vitro.

Data set [3] has as its target T2, cloned 5-HT1A receptors (Homo sapiens, UniProt P08908).
T2 construct: expressed in transfected cells; host or cells: HeLa cells (HA7)
T2 sequence (P08908 1-422): T1 sequence (P08908 1-422)
In words: Antagonism of 5-HT induced inhibition of forskolin induced cAMP accumulation. Conditions: cloned 5-HT1A receptors in transfected HeLa cells (HA7). Type of data set: cell-based. The protocol:
The assay was performed as a modification of the method described by Pauwels, P. J et al, Biochem. Pharmacol. 1993, 45, 375.
(In general: Changes in cAMP serve as a functional read-out for many G protein-coupled receptors.)

Setting [4] is: read-out: Inhibition of 3H-5-CT binding IC50, cloned human 5-HT1A receptors expressed in transfected HeLa cells (HA7), cell homogenate, 15 minutes at 37° C., pH 7.7.

Counter-ions that a name gives are not always drawn. Like-named read-outs stand apart in the source and are kept apart here.

For orientation: IC50 means the point on the concentration scale where inhibition reaches its midpoint. Regarding `CC1(C)Cc2cccc(C3CCN(CCc4c[nH]c5cc(Cl)ccc45)CC3)c2O1` [Compound 1f, 6-Chloro-3-[2-[4-(2,2, -dimethyl-2,3-dihydrobenzofuran-7-yl)piperidin-1-yl]ethyl]-1H-indole oxalate], the results for the IC50 in data set [1], in data set [2] and in data set [3] were 6.1 nM, 5.9 nM and 1800 nM, respectively.

Usually melting point stands for the temperature of the solid-liquid transition. On to `Clc1ccc2c(CCN3CCN(c4c(Cl)ccc5c4OCCO5)CC3)c[nH]c2c1.O=C(O)C(=O)O` [Compound 1m, 6-Chloro-3-[2-[4-(6-Chloro-1,4-benzodioxan-5-yl)piperazin-1-yl]ethyl]-1H-indole oxalate], for which the melting point was 216 to 217 °C. This compound registered a 50% inhibitory concentration (IC50) in data set [1] of 99 nM. Moreover, the IC50 in data set [2] is 57 nM.

`Clc1ccc2c(c1)C(CCN1CCN(c3cccc4c3OCCO4)CC1)CN2.O=C(O)C(=O)O` (stereo not drawn) showed a melting point of 153 to 157 °C.

The compound `Clc1ccc2ccn(CCN3CCN(c4cccc5c4OCCO5)CC3)c2c1.O=C(O)C(=O)O` had a melting point of 234 to 235 °C.

For the compound `O=C(O)C(=O)O.c1cc2c(c(N3CCN(CCn4ccc5ccccc54)CC3)c1)OCC2`, the melting point fell in the range of 223 to 226 °C.

`Brc1ccc2[nH]cc(CCN3CCN(c4cccc5c4SCC=C5)CC3)c2c1`: the melting point is 166 to 167 °C.

As for `C#CCn1cc(CCN2CCN(c3cccc4c3OCCO4)CC2)c2ccccc21.O=C(O)C(=O)O`, the melting point was 168 to 172 °C.

In turn, `Clc1cc2c(c(N3CCN(CCc4c[nH]c5cc(Cl)ccc45)CC3)c1)OCCO2.O=C(O)C(=O)O` [Compound 1l, 6-Chloro-3-[2-[4-(7-chloro-1,4-benzodioxan-5-yl)piperazin-1-yl]ethyl]-1H-indole oxalate] gave a melting point of 237 to 238 °C. For the same compound, the IC50 in data set [1] was 12 nM. In addition, the IC50 in data set [2] turned out to be 7.7 nM.

In turn, `Fc1ccc2[nH]cc(CCN3CCN(c4cccc5c4OCC5)CC3)c2c1.O=C(O)C(=O)O` returned a melting point of 145 to 149 °C.

In turn, `Cc1cc2c(c(C3CCN(CCc4c[nH]c5cc(Cl)ccc45)CC3)c1)OC(C)(C)C2.O=C(O)/C=C/C(=O)O` [Compound 1d, 6-Chloro-3-[2-[4-(2,2,5-trimethyl-2,3-dihydrobenzofuran-7-yl)piperidin-1-yl]ethyl]-1H-indole fumarate] displayed a melting point of 232 to 237 °C. In data set [1], this compound had an IC50 of 55 nM. For the same compound, the IC50 in data set [2] came out at 36 nM.

With `CC1(C)Cc2cccc(C3CCN(CCc4c[nH]c5cc(Cl)ccc45)CC3)c2O1` (as salt: oxalate) [Compound 1f, 6-Chloro-3-[2-[4-(2,2, -dimethyl-2,3-dihydrobenzofuran-7-yl)piperidin-1-yl]ethyl]-1H-indole oxalate], the melting point lay within 190 to 193 °C.

The compound `Clc1ccc2c(ccn2CCN2CCN(c3cccc4c3OCCO4)CC2)c1.O=C(O)C(=O)O` displayed a melting point of 234 to 235 °C.

With `CN1CC(CCN2CCN(c3cccc4c3OCCO4)CC2)c2ccccc21` (stereo not drawn) [Compound 6a, 3-[2-[4-(1,4-Benzodioxan-5-yl)Piperazin-1-yl]Ethyl]-2,3-Dihydro-1-Methyl-1H-Indole Oxalate], the IC50 in data set [3] is 100 nM.

On to `Cc1[nH]c2ccccc2c1CCN1CCN(c2cccc3c2OCCO3)CC1.O=C(O)C(=O)O` [Compound 1c, 3-[2-[4-(1,4-Benzodioxan-5-yl)piperazin-1-yl]ethyl]-2-methyl-1H-indole oxalate], for which the melting point was 205 to 208 °C. The compound also yielded an IC50 in data set [1] of 2.5 nM. Besides, in data set [2], the IC50 came out at 45 nM.

In the case of “3-[2-[4-(1,4-Benzodioxan-5-yl)piperazin-1-yl]ethyl]-6-methyl-1H-indole hemifumarate [Compound 1k]”, the IC50 was 2 nM in data set [1] (setting [4]), 18 nM in data set [2] and 580 nM in data set [3].

`Clc1ccc2c(CCN3CCN(c4cccc5c4SCC=C5)CC3)c[nH]c2c1` [Compound 1t] yielded a melting point of 178 to 179 °C.

As for `Clc1ccc2c(CCN3CCN(c4cccc5c4SCCC5)CC3)c[nH]c2c1` [Compound 1t], the IC50 in data set [3] is 5900 nM.

As for `Brc1ccc2[nH]cc(CCN3CCC(c4cccc5ccoc45)CC3)c2c1.O=C(O)C(=O)O`, the melting point lay within 153 to 157 °C.

`CC1(C)COc2c(N3CCN(CCc4c[nH]c5cc(Cl)ccc45)CC3)cc(Cl)cc21` [Compound 3c, 6-Chloro-3-[2-[4-(5-chloro-3,3-dimethyl-2,3-dihydrobenzofuran-7-yl)piperazin-1-yl]ethyl]-1H-indole hemifumarate] displayed an IC50 in data set [3] of 2600 nM.

Turning to `Fc1ccc2c(ccn2CCN2CCN(c3cccc4c3OCCO4)CC2)c1.O=C(O)C(=O)O`, the melting point was in the range of 230 to 231 °C.

`Clc1ccc2c(CCN3CC=C(c4cccc5c4OCC5)CC3)c[nH]c2c1.O=C(O)C(=O)O` [Compound 1x, 6-Chloro-3-[2-[4-(2,3-dihydrobenzofuran-7-yl)-1,2,3,6-tetrahydropyridin-1-yl]ethyl]-1H-indole oxalate] gave a melting point of 211 to 214 °C. Also, the IC50 in data set [3] came out at 3000 nM.

Compound `CC1(C)Cc2cccc(N3CCN(CCc4c[nH]c5cc(Cl)ccc45)CC3)c2O1.O=C(O)/C=C/C(=O)O` returned a melting point of 165 to 167 °C.

In turn, `Clc1ccc2c(CCN3CCN(c4cccc5ccoc45)CC3)c[nH]c2c1` [Compound 1u, 3-[2-[4-(Benzofuran-7-yl)piperazin-1-yl]ethyl]-6-chloro-1H-indole] gave a melting point of 202 to 204 °C. The compound further displayed an IC50 in data set [3] of 2000 nM.

As to “3-[2-[4-(1,4-Benzodioxan-5-yl)piperazin-1-yl]ethyl]-5-methyl-1H-indole hemifumarate [Compound 1j]”, the figures for the IC50 in data set [1] (setting [4]), in data set [2] and in data set [3] were 14 nM, 3.5 nM and 980 nM, respectively.

Consider `C=CCn1cc(CCN2CCN(c3cccc4c3OCCO4)CC2)c2ccccc21.O=C(O)C(=O)O`, for which the melting point lay in the range of 187 to 190 °C.

Compound `Brc1ccc2[nH]cc(CCN3CC=C(c4cccc5ccoc45)CC3)c2c1.O=C(O)C(=O)O` displayed a melting point of 185 to 194 °C.

Regarding `COc1ccc2[nH]cc(CCN3CCN(c4cccc5c4OCCO5)CC3)c2c1` (as salt: oxalate) [Compound 1i, 3-[2-[4-(1,4-Benzodioxan-5-yl)piperazin-1-y]ethyl]-5-methoxy-1H-indole hemioxalate], the melting point lay within 189 to 196 °C.

`O=C(O)C(=O)O.c1ccc(CN2CC(CCN3CCN(c4cccc5c4OCCO5)CC3)c3ccccc32)cc1` (stereo not drawn): the melting point fell in the range of 158 to 165 °C.

As to `COc1ccc2[nH]cc(CCN3CCN(c4cccc5c4OCCO5)CC3)c2c1` [Compound 1i, 3-[2-[4-(1,4-Benzodioxan-5-yl)piperazin-1-y]ethyl]-5-methoxy-1H-indole hemioxalate], the results for the IC50 in data set [1], in data set [2] and in data set [3] were 6.9 nM, 6.8 nM and 620 nM, respectively.

As for `O=C(O)C(=O)O.c1cc2c(c(N3CCN(CCn4ccc5ccccc54)CC3)c1)OCCO2`, the melting point was in the range of 225 to 229 °C.

Compound `Clc1ccc2c(CCN3CCN(c4cccc5c4OCC5)CC3)c[nH]c2c1.O=C(O)C(=O)O` [Compound 1o, 6-Chloro-3-[2-[4-(2,3-dihydrobenzofuran-7-yl)piperazin-1-yl]ethyl]-1H-indole oxalate] came in with a melting point of 205 to 207 °C. In data set [3], this compound yielded an IC50 of 3200 nM.

Regarding `Clc1ccc2[nH]cc(CCN3CCN(c4cccc5c4SCC=C5)CC3)c2c1`, the melting point lay within 152 to 153 °C.

Compound `CC1(C)Cc2cccc(C3=CCN(CCc4c[nH]c5cc(Cl)ccc45)CC3)c2O1` (as salt: oxalate) [Compound 1g, 6-Chloro-3-[2-[4-(2,2,-dimethyl-2,3,-dihydrohydrobenzofuran-7-yl)-1,2,3,6-tetrahydro-1-pyridyl]ethyl]-1H-indole oxalate] gave a melting point of 200 to 204 °C.

`Fc1ccc2[nH]cc(CCN3CCC(c4cccc5ccoc45)CC3)c2c1.O=C(O)C(=O)O` registered a melting point of 191 to 194 °C.

The compound `Clc1ccc2[nH]cc(CCN3CCN(c4cccc5ccsc45)CC3)c2c1.O=C(O)C(=O)O` registered a melting point of 175.2 to 176.6 °C.

On to `C=CCN1CC(CCN2CCN(c3cccc4c3OCCO4)CC2)c2ccccc21.O=C(O)C(=O)O` (stereo not drawn), for which the melting point was 133 to 136 °C.

For `CC1(C)Cc2cc(Cl)cc(N3CCN(CCc4c[nH]c5ccccc45)CC3)c2O1` [Compound 3b, 3-[2-[4-(5-Chloro-2,2-dimethyl-2,3-dihydrobenzofuran-7-yl)piperazin-1-yl]ethyl]-1H-indole hemifumarate], the IC50 was 3.6 nM in data set [1] (setting [4]) and 8.3 nM in data set [2].
